Assay results from patent publication US20130108563A1, “COMPOSITIONS COMPRISING AT LEAST ONE AQUEOUS PHASE AND AT LEAST ONE FATTY PHASE WHICH COMPRISES AVERMECTIN COMPOUNDS” (Galderma S.A., priority 2006, published 2013).

What was measured:
[1] = 1-month stability of ivermectin in oily-phase excipients; assay type: physicochemical
Procedure: (§1) Maximum solubility of ivermectin at T1 hour at ambient temperature (AT) in various oily-phase excipients and 1 month stability at AT and T40° C.

[2] = Maximum solubility of ivermectin in oily-phase excipients; assay type: physicochemical; settings: T1 hour, ambient temperature
Procedure: as §1

For ivermectin, the “1-month stability at 40° C.” value ([1]; in Diisopropyl adipate) was “Stable”, the “1-month stability at AT” value ([1]; in Diisopropyl adipate) was “Stable” and the “1-month stability at 40° C.” value ([1]; in PPG 15 stearyl ether) was “Stable”. The “1-month stability at AT” value ([1]; in PPG 15 stearyl ether) was “Stable”, the “Maximum solubility of ivermectin % (w/w)” value ([2]; in C12-C15 alkyl benzoate) was 1.6 % (w/w) and the “Maximum solubility of ivermectin % (w/w)” value ([2]; in Diisopropyl adipate) was 10.4 % (w/w). The “Maximum solubility of ivermectin % (w/w)” value ([2]; in Guerbet alcohol) was 2.5 % (w/w) and the “Maximum solubility of ivermectin % (w/w)” value ([2]; in PPG 15 stearyl ether) was 3.3 % (w/w).
